The values that follow come from ChEMBL document CHEMBL1157886, “Potent dihydroquinolinone dopamine D2 partial agonist/serotonin reuptake inhibitors for the treatment of schizophrenia” (Bioorg Med Chem Lett, 2010).

Bounds are passed on as bounds.

Assay [1] deals with T1, D(2) dopamine receptor (Homo sapiens, UniProt P14416). Nature of the assay: Displacement of [3H]spiperone form human dopamine D2 receptor by liquid scintillation counting.
Assay [2] addresses T1, D(2) dopamine receptor. The experiment in a line: Ratio of compound to quinpirole partial agonist activity at human dopamine D2 receptor. Format: functional.
Assay [3] addresses Sodium-dependent serotonin transporter (Homo sapiens, UniProt P31645).
Assay [4] has as its target T2, Adrenergic receptor alpha-1 (Homo sapiens, UniProt P35348+P25100+P35368).
T2 sequence (P35348 whole entry): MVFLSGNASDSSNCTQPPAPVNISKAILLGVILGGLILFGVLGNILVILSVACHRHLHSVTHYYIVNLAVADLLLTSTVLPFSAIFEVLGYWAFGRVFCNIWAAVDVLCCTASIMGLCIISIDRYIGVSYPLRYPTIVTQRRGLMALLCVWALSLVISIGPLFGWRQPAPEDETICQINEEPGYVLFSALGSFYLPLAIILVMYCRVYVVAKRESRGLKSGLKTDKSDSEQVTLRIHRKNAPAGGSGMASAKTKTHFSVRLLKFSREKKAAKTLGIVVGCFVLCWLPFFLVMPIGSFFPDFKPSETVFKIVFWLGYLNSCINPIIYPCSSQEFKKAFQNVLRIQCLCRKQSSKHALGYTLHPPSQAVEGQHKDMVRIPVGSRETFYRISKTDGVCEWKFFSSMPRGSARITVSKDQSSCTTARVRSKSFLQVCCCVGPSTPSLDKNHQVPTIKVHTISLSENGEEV
T2 sequence (P25100 whole entry): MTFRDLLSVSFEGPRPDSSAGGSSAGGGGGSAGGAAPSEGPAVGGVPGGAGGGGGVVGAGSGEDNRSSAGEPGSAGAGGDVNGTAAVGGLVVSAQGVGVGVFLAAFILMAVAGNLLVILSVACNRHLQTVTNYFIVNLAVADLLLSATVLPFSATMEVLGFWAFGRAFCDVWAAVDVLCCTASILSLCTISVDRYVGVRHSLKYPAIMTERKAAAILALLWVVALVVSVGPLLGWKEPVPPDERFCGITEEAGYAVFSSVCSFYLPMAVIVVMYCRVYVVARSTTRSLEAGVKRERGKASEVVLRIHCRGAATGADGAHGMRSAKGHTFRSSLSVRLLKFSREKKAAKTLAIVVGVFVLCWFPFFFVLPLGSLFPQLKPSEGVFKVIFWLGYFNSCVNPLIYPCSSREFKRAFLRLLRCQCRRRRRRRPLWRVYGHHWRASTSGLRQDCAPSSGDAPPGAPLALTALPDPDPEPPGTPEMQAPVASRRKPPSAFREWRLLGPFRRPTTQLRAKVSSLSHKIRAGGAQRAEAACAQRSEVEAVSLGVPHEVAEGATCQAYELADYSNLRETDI
T2 sequence (P35368 whole entry): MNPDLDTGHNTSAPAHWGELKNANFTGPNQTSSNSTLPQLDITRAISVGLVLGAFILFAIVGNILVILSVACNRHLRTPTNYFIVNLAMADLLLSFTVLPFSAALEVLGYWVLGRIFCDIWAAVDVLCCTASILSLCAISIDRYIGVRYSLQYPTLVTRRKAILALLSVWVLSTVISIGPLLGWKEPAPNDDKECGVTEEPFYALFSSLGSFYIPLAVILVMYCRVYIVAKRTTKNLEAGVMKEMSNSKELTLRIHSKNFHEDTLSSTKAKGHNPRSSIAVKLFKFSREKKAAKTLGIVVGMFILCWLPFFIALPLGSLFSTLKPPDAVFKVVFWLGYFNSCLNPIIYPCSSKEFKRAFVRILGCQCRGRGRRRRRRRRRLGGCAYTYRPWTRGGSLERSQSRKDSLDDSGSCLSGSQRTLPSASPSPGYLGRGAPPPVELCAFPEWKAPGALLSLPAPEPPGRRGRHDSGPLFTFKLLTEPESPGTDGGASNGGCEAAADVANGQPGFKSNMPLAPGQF
Nature of the assay: Binding affinity to human alpha1 adrenergic receptor by radioligand displacement assay.

Chain of Sodium-dependent serotonin transporter (P31645 whole entry): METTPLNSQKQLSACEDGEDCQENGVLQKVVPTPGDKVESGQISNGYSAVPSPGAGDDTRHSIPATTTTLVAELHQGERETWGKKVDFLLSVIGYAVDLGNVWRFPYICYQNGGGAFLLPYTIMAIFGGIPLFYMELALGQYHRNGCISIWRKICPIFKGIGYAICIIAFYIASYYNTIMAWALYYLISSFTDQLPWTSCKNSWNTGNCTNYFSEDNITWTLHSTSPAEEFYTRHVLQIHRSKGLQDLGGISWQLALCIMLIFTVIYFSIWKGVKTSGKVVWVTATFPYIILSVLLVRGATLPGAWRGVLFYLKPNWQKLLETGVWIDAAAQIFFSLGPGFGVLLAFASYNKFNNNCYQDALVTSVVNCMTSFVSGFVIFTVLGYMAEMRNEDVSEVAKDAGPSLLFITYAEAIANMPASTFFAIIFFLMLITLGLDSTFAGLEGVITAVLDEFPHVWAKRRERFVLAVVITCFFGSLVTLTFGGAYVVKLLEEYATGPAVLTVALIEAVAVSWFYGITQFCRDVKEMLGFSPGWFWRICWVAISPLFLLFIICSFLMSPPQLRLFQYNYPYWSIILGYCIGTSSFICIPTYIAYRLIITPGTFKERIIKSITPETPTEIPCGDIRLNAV
T1 sequence (P14416 whole entry): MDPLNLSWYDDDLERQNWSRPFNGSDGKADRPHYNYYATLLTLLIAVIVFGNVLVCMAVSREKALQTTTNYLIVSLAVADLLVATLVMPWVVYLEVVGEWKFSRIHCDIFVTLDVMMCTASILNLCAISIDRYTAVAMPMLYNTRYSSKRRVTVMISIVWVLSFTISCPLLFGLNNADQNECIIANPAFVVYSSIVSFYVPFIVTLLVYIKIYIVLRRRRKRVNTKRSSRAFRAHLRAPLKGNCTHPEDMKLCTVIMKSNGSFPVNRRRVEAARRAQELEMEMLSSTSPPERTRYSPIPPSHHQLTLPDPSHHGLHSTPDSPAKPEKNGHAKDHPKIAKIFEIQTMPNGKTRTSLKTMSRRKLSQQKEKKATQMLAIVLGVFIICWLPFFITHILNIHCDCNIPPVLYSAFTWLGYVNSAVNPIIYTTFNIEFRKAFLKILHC

Regarding `CS(=O)(=O)Nc1cccc(OCCN2CCC(Cc3ccc4c(c3)NC(=O)CC4)CC2)c1`, the Ki on D(2) dopamine receptor [1] came to 9 nM; in assay [3] it was 19 nM. On D(2) dopamine receptor [2], the Ratio is below 0.1.

On to `O=C1CCc2ccc(OCCN3CCN(c4cccc5[nH]c(=O)oc45)CC3)cc2N1`, for which the Ki on D(2) dopamine receptor [1] turned out to be 8.6 nM; in assay [3], 538 nM.

On to `CS(=O)(=O)Nc1cccc(OCCN2CCC(Oc3ccc4c(c3)NC(=O)CC4)CC2)c1`, for which the values for the Ki (at D(2) dopamine receptor [1]; in assay [4]; in assay [3]) were 18 nM, 91 nM and 22 nM, respectively. Besides, the Ratio on D(2) dopamine receptor [2] came to 0.21.

As for `O=C1CCc2ccc(CC3CC4CCC(C3)N4C[C@@H]3COc4c(ccc5c4CC(=O)N5)O3)cc2N1` (some centres undefined), the results for the inhibition constant Ki (on D(2) dopamine receptor [1]; in assay [4]; in assay [3]) were 16 nM, 8 nM and 0.26 nM, respectively. Further, at D(2) dopamine receptor [2], the Ratio was below 0.1.

On to `O=C1CCc2ccc(CC3CCN(C[C@@H]4COc5c(ccc6c5CC(=O)N6)O4)CC3)cc2N1`, for which the Ki on D(2) dopamine receptor [1] is 8 nM; in assay [4], 2 nM; in assay [3], 1.9 nM. The Ratio at D(2) dopamine receptor [2] amounted to 0.38.

For the compound `CS(=O)(=O)Nc1cccc(OCCN2CC3CCC(C2)C3Cc2ccc3c(c2)NC(=O)CC3)c1` (centres undefined), the inhibition constant Ki is 11 nM on D(2) dopamine receptor [1], above 3300 nM in assay [4] and 1.7 nM in assay [3]. Besides, the Ratio on D(2) dopamine receptor [2] is 0.25.

On to `O=C1CCc2ccc(OCCCCN3CCN(c4cccc5[nH]c(=O)oc45)CC3)cc2N1`, for which the Ki is 8.3 nM at D(2) dopamine receptor [1] and 94 nM in assay [3].

`CS(=O)(=O)Nc1cc(OCCN2CCC(Oc3ccc4c(c3)NC(=O)CC4)CC2)ccc1F`: the Ki on D(2) dopamine receptor [1] was 9 nM; in assay [4], 354 nM; in assay [3] it was 30 nM. On D(2) dopamine receptor [2], the Ratio is below 0.1.

Consider `CS(=O)(=O)Nc1cc(OCCN2CCC(Cc3ccc4c(c3)NC(=O)CC4)CC2)ccc1F`, for which the Ki was 19 nM at D(2) dopamine receptor [1] and 20 nM in assay [3]. Further, the Ratio on D(2) dopamine receptor [2] is below 0.1.

On to `CS(=O)(=O)Nc1cc(OCCN2CC3CCC(C2)C3Cc2ccc3c(c2)NC(=O)CC3)ccc1F` (centres undefined), for which the Ki on D(2) dopamine receptor [1] worked out at 7 nM; in assay [4], 1100 nM; in assay [3], 5 nM. Moreover, the Ratio at D(2) dopamine receptor [2] was found to be 0.85.

`O=C1CCc2ccc(CC3C4CCC3CN(C[C@@H]3COc5c(ccc6c5CC(=O)N6)O3)C4)cc2N1` (some centres undefined): the Ki at D(2) dopamine receptor [1] is 6.3 nM; in assay [4], 46 nM; in assay [3] it was 1.5 nM. Also, the Ratio on D(2) dopamine receptor [2] came to 0.4.

`O=C1CCc2ccc(OC3CCN(C[C@@H]4COc5c(ccc6c5CC(=O)N6)O4)CC3)cc2N1`: the Ki at D(2) dopamine receptor [1] was found to be 2.5 nM; in assay [4] it was 2 nM; in assay [3], 20 nM. Further, at D(2) dopamine receptor [2], the Ratio was determined as 0.41.

As for `O=C1CCc2ccc(OCCCN3CCN(c4cccc5[nH]c(=O)oc45)CC3)cc2N1`, the Ki on D(2) dopamine receptor [1] was 8.6 nM; in assay [3], 93 nM.
